{
  "source": "patent US8802597B2",
  "about": "“Herbicidal pyrimidines” (E I du Pont de Nemours and Company, priority 2003, dated 2014)",
  "experiment_in_all_cases": "Test A pre/postemergence",
  "format_in_all_cases": "in vivo",
  "key": {"[1]": {"tested_on": "barnyardgrass (Echinochloa crus-galli)", "details": "for pest or weed control at 125 g/ha / pest or weed control at 500 g/ha: Echinochloa crus-galli, 240 h, read-out: Plant response rating, Barnyardgrass", "outline": "(§1)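 Ratings: 0 = no effect, 100 = complete control, assessed visually about ten days post-treatment in a greenhouse. Applications: soil-directed preemergence spray and postemergence spray on 1- to 2-leaf plants, both using a surfactant-containing non-phytotoxic solvent formulation.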"}, "[2]": {"tested_on": "giant foxtail (Setaria faberi)", "details": "for pest or weed control at 125 g/ha / pest or weed control at 500 g/ha: Setaria faberi, 240 h, read-out: Plant response rating, Foxtail, Giant", "outline": "as §1"}, "[3]": {"tested_on": "crabgrass (Digitaria sanguinalis)", "details": "for pest or weed control at 125 g/ha / pest or weed control at 500 g/ha: Digitaria sanguinalis, 240 h, read-out: Plant response rating, Crabgrass", "outline": "as §1"}, "[4]": {"tested_on": "velvetleaf (Abutilon theophrasti)", "details": "for pest or weed control at 125 g/ha / pest or weed control at 500 g/ha: Abutilon theophrasti, 240 h, read-out: Plant response rating, Velvetleaf", "outline": "as §1"}, "[5]": {"tested_on": "morningglory (Ipomoea spp.)", "details": "for pest or weed control at 125 g/ha / pest or weed control at 500 g/ha: Ipomoea, 240 h, read-out: Plant response rating, Morningglory", "outline": "as §1"}, "[6]": {"tested_on": "redroot pigweed (Amaranthus retroflexus)", "details": "for pest or weed control at 125 g/ha / pest or weed control at 500 g/ha: Amaranthus retroflexus, 240 h, read-out: Plant response rating, Pigweed", "outline": "as §1"}, "[7]": {"details": "post-emergence, Postemergence, 125 g ai/ha, 0 to 100 scale (0 no effect, 100 complete control)"}, "[8]": {"details": "post-emergence, Postemergence, 500 g ai/ha, 0 to 100 scale (0 no effect, 100 complete control)"}, "[9]": {"details": "pre-emergence, Preemergence, 125 g ai/ha, 0 to 100 scale where 0 is no effect and 100 is complete control, approximately ten days"}, "[10]": {"details": "pre-emergence, Preemergence, 500 g ai/ha, 0 to 100 scale where 0 is no effect and 100 is complete control, approximately ten days"}, "[11]": {"details": "Postemergence, 125 g ai/ha, 0 to 100 scale (0 no effect, 100 complete control)"}, "[12]": {"details": "Postemergence, 500 g ai/ha, 0 to 100 scale (0 no effect, 100 complete control)"}, "[13]": {"details": "Preemergence, 125 g ai/ha, 0 to 100 scale where 0 is no effect and 100 is complete control, approximately ten days"}, "[14]": {"details": "Preemergence, 500 g ai/ha, 0 to 100 scale where 0 is no effect and 100 is complete control, approximately ten days"}},
  "note": "Like-named read-outs stand apart in the source and are kept apart here.",
  "data": [
    {"smiles": "CNC(=O)c1nc(C2CC2)nc(N)c1Cl", "note": "[Compound 81]", "values": [
      {"measurement": "pest or weed control at 125 g/ha", "setting": "[1]; [7]", "value": 0, "unit": "%"},
      {"measurement": "pest or weed control at 500 g/ha", "setting": "[1]; [8]", "value": 30, "unit": "%"},
      {"measurement": "pest or weed control at 125 g/ha", "setting": "[1]; [9]", "value": 10, "unit": "%"},
      {"measurement": "pest or weed control at 500 g/ha", "setting": "[1]; [10]", "value": 20, "unit": "%"},
      {"measurement": "pest or weed control at 125 g/ha", "setting": "[2]; [7]", "value": 0, "unit": "%"},
      {"measurement": "pest or weed control at 500 g/ha", "setting": "[2]; [8]", "value": 30, "unit": "%"},
      {"measurement": "pest or weed control at 125 g/ha", "setting": "[2]; [9]", "value": 0, "unit": "%"},
      {"measurement": "pest or weed control at 500 g/ha", "setting": "[2]; [10]", "value": 10, "unit": "%"},
      {"measurement": "pest or weed control at 125 g/ha", "setting": "[3]; [7]", "value": 0, "unit": "%"},
      {"measurement": "pest or weed control at 500 g/ha", "setting": "[3]; [8]", "value": 10, "unit": "%"},
      {"measurement": "pest or weed control at 125 g/ha", "setting": "[3]; [9]", "value": 0, "unit": "%"},
      {"measurement": "pest or weed control at 500 g/ha", "setting": "[3]; [10]", "value": 10, "unit": "%"},
      {"measurement": "pest or weed control at 125 g/ha", "setting": "[4]; [7]", "value": 50, "unit": "%"},
      {"measurement": "pest or weed control at 500 g/ha", "setting": "[4]; [8]", "value": 75, "unit": "%"},
      {"measurement": "pest or weed control at 125 g/ha", "setting": "[4]; [9]", "value": 20, "unit": "%"},
      {"measurement": "pest or weed control at 500 g/ha", "setting": "[4]; [10]", "value": 40, "unit": "%"},
      {"measurement": "pest or weed control at 125 g/ha", "setting": "[5]; [7]", "value": 50, "unit": "%"},
      {"measurement": "pest or weed control at 500 g/ha", "setting": "[5]; [8]", "value": 80, "unit": "%"},
      {"measurement": "pest or weed control at 125 g/ha", "setting": "[5]; [9]", "value": 0, "unit": "%"},
      {"measurement": "pest or weed control at 500 g/ha", "setting": "[5]; [10]", "value": 50, "unit": "%"},
      {"measurement": "pest or weed control at 125 g/ha", "setting": "[6]; [7]", "value": 55, "unit": "%"},
      {"measurement": "pest or weed control at 500 g/ha", "setting": "[6]; [8]", "value": 75, "unit": "%"},
      {"measurement": "pest or weed control at 125 g/ha", "setting": "[6]; [9]", "value": 60, "unit": "%"},
      {"measurement": "pest or weed control at 500 g/ha", "setting": "[6]; [10]", "value": 70, "unit": "%"}
    ]},
    {"smiles": "CCOC(=O)c1nc(-c2ccc(C(F)(F)F)cc2)nc(N)c1Cl", "note": "[Compound 104]", "values": [
      {"measurement": "Plant response rating, Barnyardgrass", "setting": "[1]; [11]", "value": 0},
      {"measurement": "Plant response rating, Barnyardgrass", "setting": "[1]; [12]", "value": 10},
      {"measurement": "Plant response rating, Barnyardgrass", "setting": "[1]; [13]", "value": 0},
      {"measurement": "Plant response rating, Barnyardgrass", "setting": "[1]; [14]", "value": 5},
      {"measurement": "Plant response rating, Foxtail, Giant", "setting": "[2]; [11]", "value": 0},
      {"measurement": "Plant response rating, Foxtail, Giant", "setting": "[2]; [12]", "value": 5},
      {"measurement": "Plant response rating, Foxtail, Giant", "setting": "[2]; [13]", "value": 0},
      {"measurement": "Plant response rating, Foxtail, Giant", "setting": "[2]; [14]", "value": 5},
      {"measurement": "Plant response rating, Crabgrass", "setting": "[3]; [11]", "value": 15},
      {"measurement": "Plant response rating, Crabgrass", "setting": "[3]; [12]", "value": 30},
      {"measurement": "Plant response rating, Crabgrass", "setting": "[3]; [13]", "value": 0},
      {"measurement": "Plant response rating, Crabgrass", "setting": "[3]; [14]", "value": 10},
      {"measurement": "Plant response rating, Velvetleaf", "setting": "[4]; [11]", "value": 70},
      {"measurement": "Plant response rating, Velvetleaf", "setting": "[4]; [12]", "value": 80},
      {"measurement": "Plant response rating, Velvetleaf", "setting": "[4]; [13]", "value": 0},
      {"measurement": "Plant response rating, Velvetleaf", "setting": "[4]; [14]", "value": 10},
      {"measurement": "Plant response rating, Morningglory", "setting": "[5]; [11]", "value": 25},
      {"measurement": "Plant response rating, Morningglory", "setting": "[5]; [12]", "value": 40},
      {"measurement": "Plant response rating, Morningglory", "setting": "[5]; [13]", "value": 0},
      {"measurement": "Plant response rating, Morningglory", "setting": "[5]; [14]", "value": 0},
      {"measurement": "Plant response rating, Pigweed", "setting": "[6]; [11]", "value": 30},
      {"measurement": "Plant response rating, Pigweed", "setting": "[6]; [12]", "value": 45},
      {"measurement": "Plant response rating, Pigweed", "setting": "[6]; [13]", "value": 0},
      {"measurement": "Plant response rating, Pigweed", "setting": "[6]; [14]", "value": 10}
    ]},
    {"smiles": "NC(=O)c1nc(-c2ccc(Br)cc2)nc(N)c1Br", "note": "[Compound 130]", "values": [
      {"measurement": "Plant response rating, Barnyardgrass", "setting": "[1]; [11]", "value": 0},
      {"measurement": "Plant response rating, Barnyardgrass", "setting": "[1]; [12]", "value": 0},
      {"measurement": "Plant response rating, Barnyardgrass", "setting": "[1]; [13]", "value": 0},
      {"measurement": "Plant response rating, Barnyardgrass", "setting": "[1]; [14]", "value": 0},
      {"measurement": "Plant response rating, Foxtail, Giant", "setting": "[2]; [11]", "value": 0},
      {"measurement": "Plant response rating, Foxtail, Giant", "setting": "[2]; [12]", "value": 0},
      {"measurement": "Plant response rating, Foxtail, Giant", "setting": "[2]; [13]", "value": 0},
      {"measurement": "Plant response rating, Foxtail, Giant", "setting": "[2]; [14]", "value": 0},
      {"measurement": "Plant response rating, Crabgrass", "setting": "[3]; [11]", "value": 0},
      {"measurement": "Plant response rating, Crabgrass", "setting": "[3]; [12]", "value": 0},
      {"measurement": "Plant response rating, Crabgrass", "setting": "[3]; [13]", "value": 0},
      {"measurement": "Plant response rating, Crabgrass", "setting": "[3]; [14]", "value": 0},
      {"measurement": "Plant response rating, Velvetleaf", "setting": "[4]; [11]", "value": 0},
      {"measurement": "Plant response rating, Velvetleaf", "setting": "[4]; [12]", "value": 30},
      {"measurement": "Plant response rating, Velvetleaf", "setting": "[4]; [13]", "value": 0},
      {"measurement": "Plant response rating, Velvetleaf", "setting": "[4]; [14]", "value": 0},
      {"measurement": "Plant response rating, Morningglory", "setting": "[5]; [11]", "value": 0},
      {"measurement": "Plant response rating, Morningglory", "setting": "[5]; [12]", "value": 0},
      {"measurement": "Plant response rating, Morningglory", "setting": "[5]; [13]", "value": 0},
      {"measurement": "Plant response rating, Morningglory", "setting": "[5]; [14]", "value": 0},
      {"measurement": "Plant response rating, Pigweed", "setting": "[6]; [11]", "value": 0},
      {"measurement": "Plant response rating, Pigweed", "setting": "[6]; [12]", "value": 15},
      {"measurement": "Plant response rating, Pigweed", "setting": "[6]; [13]", "value": 0},
      {"measurement": "Plant response rating, Pigweed", "setting": "[6]; [14]", "value": 0}
    ]}
  ]
}
